# According to patent publication US8759504B2, “Cholinergic/serotoninergic receptor and uses thereof” (AbbVie Inc., priority 2007, dated 2014):
# Read-outs that look alike come from different tables or passages of the source.
# Experiments:
# [1] = molecular target: T1, Chimera 1 (Homo sapiens, UniProt P36544, M226I/T225V); experiment: Membrane potential imaging (FLIPR-FMP) in HEK-293 cells; format: cell-based; set-up: expressed in transfected cells
# [2] = molecular target: T2, Chimera 2 (Homo sapiens, UniProt P36544, M226I/T225V); experiment: as above; format: cell-based; set-up: expressed in transfected cells
# [3] = molecular target: T3, rat brain α7* nicotinic acetylcholine receptors (Rattus norvegicus, UniProt Q05941); experiment: [3H]A-585539 radioligand binding, rat brain homogenates
# T3 construct: expressed both as a native (rat cortex) or α7/5-HT3 chimeric receptor; from tissue; host or cells: rat brain / rat cortex homogenates
# [4] = molecular target: T2, Chimera 2; experiment: [3H]A-585539 radioligand binding, HEK-293 membranes/homogenates; set-up: expressed in transfected cells; conditions: increasing concentrations
# [5] = molecular target: T4, wild-type α7 nicotinic acetylcholine receptor (Homo sapiens, UniProt P36544); experiment: Two electrode voltage clamp in Xenopus oocytes, agonist and modulator responses; format: cell-based
# T4 construct: expressed in transfected cells; host or cells: Xenopus laevis oocytes
# [6] = molecular target: T1, Chimera 1; experiment: Two electrode voltage clamp in Xenopus oocytes (POETs), agonist and modulator responses; format: cell-based; set-up: expressed in transfected cells; host or cells: Xenopus laevis oocytes (transient, A1)
# [7] = molecular target: T2, Chimera 2; experiment: as above; format: cell-based; set-up: expressed in transfected cells; host or cells: Xenopus laevis oocytes (transient, A2); conditions: 30 μM IVM
# [8] = HEK293, read-out: Maximum efficacy (mean±S.E.M.), membrane potential imaging, HEK-293 cells
# [9] = read-out: Agonist potency, membrane potential imaging: EC50 (95% C.I.), HEK-293 cells
# [10] = HEK293, read-out: Agonist maximum efficacy, control (no modulator)
# [11] = HEK293, read-out: Agonist maximum efficacy, in the presence of 10 μM genistein
# [12] = HEK293, read-out: Agonist maximum efficacy, in the presence of 1 mM 5-HI
# [13] = read-out: Agonist concentration-response EC50, control (no modulator)
# [14] = read-out: Agonist concentration-response EC50, in the presence of 10 μM genistein
# [15] = read-out: Agonist concentration-response EC50, in the presence of 1 mM 5-HI
# T2 sequence (P36544 with tags, fused parts or gaps T225V/M226I): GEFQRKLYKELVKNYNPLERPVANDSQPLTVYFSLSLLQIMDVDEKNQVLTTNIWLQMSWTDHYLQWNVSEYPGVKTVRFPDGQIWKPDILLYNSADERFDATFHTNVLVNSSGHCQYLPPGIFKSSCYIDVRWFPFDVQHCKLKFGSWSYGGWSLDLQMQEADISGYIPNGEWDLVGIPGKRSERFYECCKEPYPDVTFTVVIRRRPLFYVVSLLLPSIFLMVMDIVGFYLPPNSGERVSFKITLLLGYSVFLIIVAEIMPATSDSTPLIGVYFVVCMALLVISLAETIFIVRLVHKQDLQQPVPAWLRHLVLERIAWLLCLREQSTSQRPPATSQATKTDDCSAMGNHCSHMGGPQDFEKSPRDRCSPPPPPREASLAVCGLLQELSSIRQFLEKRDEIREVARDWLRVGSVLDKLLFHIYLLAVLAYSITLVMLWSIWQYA
# T1 sequence (P36544 with tags, fused parts or gaps T225V/M226I): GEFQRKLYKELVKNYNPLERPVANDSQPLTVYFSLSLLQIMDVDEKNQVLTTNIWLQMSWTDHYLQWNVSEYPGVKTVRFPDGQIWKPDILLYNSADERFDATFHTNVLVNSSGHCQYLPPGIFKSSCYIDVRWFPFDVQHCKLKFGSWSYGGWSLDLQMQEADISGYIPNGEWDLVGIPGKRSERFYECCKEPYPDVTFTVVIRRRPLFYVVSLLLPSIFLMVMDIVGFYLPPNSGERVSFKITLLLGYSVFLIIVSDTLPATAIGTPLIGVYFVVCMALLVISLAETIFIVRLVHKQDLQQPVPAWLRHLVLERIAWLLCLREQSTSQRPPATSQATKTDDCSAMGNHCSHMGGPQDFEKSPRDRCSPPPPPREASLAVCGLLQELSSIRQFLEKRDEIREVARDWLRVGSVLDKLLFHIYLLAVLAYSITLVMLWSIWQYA
# T4 sequence (P36544 23-502): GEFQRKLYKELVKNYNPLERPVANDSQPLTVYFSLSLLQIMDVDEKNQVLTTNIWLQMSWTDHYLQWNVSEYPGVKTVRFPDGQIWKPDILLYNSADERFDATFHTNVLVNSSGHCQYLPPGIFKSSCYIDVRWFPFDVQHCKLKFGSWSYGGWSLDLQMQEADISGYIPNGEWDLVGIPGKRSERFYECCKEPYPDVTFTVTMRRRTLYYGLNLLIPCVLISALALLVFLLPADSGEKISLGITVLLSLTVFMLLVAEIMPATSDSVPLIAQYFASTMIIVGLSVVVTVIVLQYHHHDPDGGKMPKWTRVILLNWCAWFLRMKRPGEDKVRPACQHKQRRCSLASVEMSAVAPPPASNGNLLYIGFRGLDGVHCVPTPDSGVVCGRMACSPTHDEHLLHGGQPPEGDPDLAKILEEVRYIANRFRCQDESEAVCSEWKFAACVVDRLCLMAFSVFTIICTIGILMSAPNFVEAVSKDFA
# T3 sequence (Q05941 23-502): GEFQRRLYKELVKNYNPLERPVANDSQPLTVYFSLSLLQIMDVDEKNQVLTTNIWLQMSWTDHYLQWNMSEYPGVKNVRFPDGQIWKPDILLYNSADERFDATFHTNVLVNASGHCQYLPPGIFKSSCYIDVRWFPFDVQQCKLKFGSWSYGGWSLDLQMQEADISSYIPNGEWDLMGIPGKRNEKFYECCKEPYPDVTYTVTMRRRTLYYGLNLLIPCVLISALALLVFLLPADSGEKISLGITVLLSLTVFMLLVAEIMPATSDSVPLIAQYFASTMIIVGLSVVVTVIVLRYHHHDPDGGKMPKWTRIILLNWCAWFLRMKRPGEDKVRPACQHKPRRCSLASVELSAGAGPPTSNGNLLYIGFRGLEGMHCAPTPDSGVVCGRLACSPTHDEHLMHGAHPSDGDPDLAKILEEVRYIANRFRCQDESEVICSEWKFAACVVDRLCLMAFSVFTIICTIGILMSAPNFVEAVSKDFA
structure (smiles),measurement,setting,value
"c1ccc(-c2nnc(N3CCN4CCC3CC4)o2)cc1 [NS6784, 2-(1,4-diazabicyclo[3.2.2]nonan-4-yl)-5-phenyl-1,3,4-oxadiazole]",Emax,[1]; [8],100%
same,FLIPR-FMP pEC50 ± SEM,[1]; HEK-293 cells,6.8 ± 0.10
same,EC50,[1]; [9],133 nM
same,Emax,[2]; [8],107 ± 5%
same,FLIPR-FMP pEC50 ± SEM,[2]; HEK-293 cells,7.1 ± 0.04
same,EC50,[2]; [9],72 nM
CCN1C[C@]2(COC(=O)c3ccccc3N3C(=O)C[C@H](C)C3=O)CC[C@H](OC)[C@@]34[C@@H]5C[C@H]6[C@H](OC)[C@@H]5[C@](O)(C[C@@H]6OC)[C@@](O)([C@@H](OC)[C@H]23)[C@@H]14 [methyllycaconitine],Competition / displacement of [3H]A-585539 binding,[3],competed with the binding
same,Competition / displacement of [3H]A-585539 binding,[4],competed with the binding
O=C(N[C@H]1CN2CCC1CC2)c1ccc(Cl)cc1 [PNU-282987],Emax,[1]; [10],98 ± 2%
same,Emax,[1]; [11],87 ± 3%
same,Emax,[1]; [12],157 ± 13%
same,Emax,[1]; [8],107 ± 9%
same,FLIPR-FMP pEC50 ± SEM,[1]; HEK-293 cells,6.8 ± 0.07
same,EC50,[1]; [13],343 nM
same,EC50,[1]; [14],527 nM
same,EC50,[1]; [15],145 nM
same,EC50,[1]; [9],204 nM
same,Emax,[2]; [10],100 ± 0.01%
same,Emax,[2]; [11],207 ± 21%
same,Emax,[2]; [12],156 ± 4%
same,Emax,[2]; [8],99 ± 2%
same,FLIPR-FMP pEC50 ± SEM,[2]; HEK-293 cells,7.0 ± 0.04
same,EC50,[2]; [13],75 nM
same,EC50,[2]; [14],72 nM
same,EC50,[2]; [15],37 nM
same,EC50,[2]; [9],53 nM
"CC[C@H](C)[C@H]1O[C@]2(CC[C@@H]1C)C[C@@H]1C[C@@H](C/C=C(\C)[C@@H](O[C@H]3C[C@H](OC)[C@@H](O[C@H]4C[C@H](OC)[C@@H](O)[C@H](C)O4)[C@H](C)O3)[C@@H](C)/C=C/C=C3\CO[C@@H]4[C@H](O)C(C)=C[C@@H](C(=O)O1)[C@]34O)O2 [IVM, ivermectin]",ng of ACh curve after modulator,[5]; 30 μM IVM,1.4 ± 0.16
same,Effect of modulator on ACh-evoked current (words),[5]; Xenopus oocytes,substantial increase in the amplitude of the subsequent ACh-evoked current
same,ng of ACh curve after modulator,[6]; 30 μM IVM,1.8 ± 0.05
same,Effect of modulator on ACh-evoked current (words),[6]; Xenopus oocytes,absence of effects
same,ng of ACh curve after modulator,[7],1.1 ± 0.12
